Laboratory results published in patent publication US20230241102A1, “FORMULATIONS OF CALCIUM AND PHOSPHATE FOR ORAL INFLAMMATION” (Bausch Health Companies Inc., priority 2014, published 2023).

Tests used:
[1] = pH of the resulting liquid (pH meter Mettler Toledo Seven Multi, USP<791>); conditions: for pH trial 1 / pH trial 2: Table 2, 30 ml tap water, room temperature
Description: (§1) To evaluate dissolution, the components were weighed and put in centrifuge tubes containing 30 ml of tap water at room temperature. The tubes were gently stirred by hand (up and down movements) for 30 seconds to 1 minute. The dispersions were then assessed visually for turbidity and presence of particles in suspension or precipitate. pH was also assessed using pH meter Mettler Toledo Seven Multi and following USP<791>method.
(§2) Visual solubility tests were done in duplicate using 3 different calcium sources. The quantity of material was adjusted in order to maintain a consistent calcium content from each different salt.
The following trials were performed in order to assess visual solubility and pH levels of various formulations.

[2] = Visual solubility test: components mixed in 30 ml tap water, assessed visually for turbidity, particles in suspension or precipitate; conditions: Table 2, calcium sources at consistent calcium content, room temperature, same observation for both trials
Description: Table 1 provides a description of the visual solubility tests performed using various components (including a commercial sample), with the quantities of each product weighed, and visual observations after the components were mixed in water.
as §1, §2
The following trials were performed in order to assess visual solubility and pH levels of various formulations. […] All lots were prepared by dry blending by hand of ingredients using spatula.

pH ([1]; Tables 3-5, calcium salt with dibasic and monobasic sodium phosphate in 30 ml water)	Compound	pH trial 1 [1]	pH trial 2 [1]	Observations [2]
–	O.O.[Ca+2].[Cl-].[Cl-] [Calcium Chloride dihydrate]	7.65	7.67	–
higher pH	Calcium glycerophosphate	8.08	8.07	–
–	CC(O)C(=O)[O-].O=C([O-])[C@H](O)[C@@H](O)[C@H](O)[C@H](O)CO.[Ca+2] [Calcium lactate gluconate]	7.73	7.74	sufficiently soluble
